Results published in patent US12063930B2, “Sulfonamide-containing 4-(N-methyl) aminopiperidine myricetin derivatives, preparation method and application” (Guizhou University, priority 2019, dated 2024).
Like-named read-outs stand apart in the source and are kept apart here.

Experiments:
[1] = tested on: citrus canker pathogen (Xac); assay: Turbidimetric anti-plant bacterial activity test, citrus canker pathogen; type: cell-based, Xanthomonas axonopodis pv. citri
[2] = tested on: tobacco bacterial wilt pathogen (Rs); type: cell-based, Ralstonia solanacearum
[3] = tested on: rice bacterial wilt pathogen (Xoo); type: cell-based, Xanthomonas oryzae pv. oryzae

Compound	Inhibition Rate ([1]; 50 μg/mL) [%]	Inhibition Rate ([1]; 100 μg/mL) [%]	Inhibition Rate ([2]; 50 μg/mL) [%]	Inhibition Rate ([2]; 100 μg/mL) [%]	Inhibition Rate ([3]; 50 μg/mL) [%]	Inhibition Rate ([3]; 100 μg/mL) [%]
COc1cc(OC)c2c(=O)c(OCCCN(C)C3CCN(S(=O)(=O)c4ccc(C)cc4)CC3)c(-c3cc(OC)c(OC)c(OC)c3)oc2c1 [Compound I1]	93.55 ± 0.85	99.20 ± 4.48	47.86 ± 5.55	58.01 ± 6.08	75.88 ± 1.80	81.34 ± 0.57
COc1cc(OC)c2c(=O)c(OCCCN(C)C3CCN(S(=O)(=O)c4ccc5ccccc5c4)CC3)c(-c3cc(OC)c(OC)c(OC)c3)oc2c1 [Compound I2]	92.76 ± 2.12	99.55 ± 5.61	34.17 ± 5.87	30.28 ± 8.79	88.53 ± 5.30	99.01 ± 4.53
COc1cc(OC)c2c(=O)c(OCCCN(C)C3CCN(S(=O)(=O)c4ccc(F)cc4)CC3)c(-c3cc(OC)c(OC)c(OC)c3)oc2c1 [Compound I3]	88.81 ± 1.32	94.73 ± 1.63	56.37 ± 3.41	55.25 ± 2.35	9.99 ± 7.64	53.31 ± 3.55
COc1cc(OC)c2c(=O)c(OCCCN(C)C3CCN(S(=O)(=O)c4cccs4)CC3)c(-c3cc(OC)c(OC)c(OC)c3)oc2c1 [Compound I4]	76.83 ± 2.59	81.47 ± 3.58	46.44 ± 8.48	58.19 ± 8.11	21.34 ± 3.45	48.16 ± 4.24
COc1ccc(S(=O)(=O)N2CCC(N(C)CCCOc3c(-c4cc(OC)c(OC)c(OC)c4)oc4cc(OC)cc(OC)c4c3=O)CC2)cc1 [Compound I5]	84.37 ± 1.91	95.86 ± 1.19	18.66 ± 9.95	49.03 ± 5.33	56.37 ± 2.44	68.42 ± 4.76
COc1cc(OC)c2c(=O)c(OCCCN(C)C3CCN(S(=O)(=O)c4ccc([N+](=O)[O-])cc4)CC3)c(-c3cc(OC)c(OC)c(OC)c3)oc2c1 [Compound I6]	96.13 ± 1.63	99.01 ± 0.64	26.01 ± 6.89	59.09 ± 4.18	52.08 ± 6.32	60.99 ± 5.49
COc1cc(OC)c2c(=O)c(OCCCN(C)C3CCN(S(=O)(=O)c4ccccc4)CC3)c(-c3cc(OC)c(OC)c(OC)c3)oc2c1 [Compound I7]	89.57 ± 2.14	92.48 ± 0.65	50.24 ± 2.21	52.83 ± 6.66	48.01 ± 3.21	53.46 ± 2.80
COc1cc(OC)c2c(=O)c(OCCCN(C)C3CCN(S(=O)(=O)c4ccccn4)CC3)c(-c3cc(OC)c(OC)c(OC)c3)oc2c1 [Compound I8]	85.13 ± 2.35	88.03 ± 1.19	47.65 ± 0.35	48.99 ± 2.35	52.14 ± 3.12	59.94 ± 3.35
COc1cc(OC)c2c(=O)c(OCCCN(C)C3CCN(S(=O)(=O)c4ccc5cccnc5c4)CC3)c(-c3cc(OC)c(OC)c(OC)c3)oc2c1 [Compound I9]	32.80 ± 2.29	42.50 ± 1.87	12.10 ± 2.57	28.82 ± 3.37	37.31 ± 5.41	40.25 ± 1.39
COc1cc(OC)c2c(=O)c(OCCCN(C)C3CCN(S(=O)(=O)c4ccccc4[N+](=O)[O-])CC3)c(-c3cc(OC)c(OC)c(OC)c3)oc2c1 [Compound I10]	38.60 ± 4.17	45.69 ± 0.50	57.89 ± 3.30	94.99 ± 1.50	59.65 ± 2.25	67.71 ± 2.22
COc1cc(OC)c2c(=O)c(OCCCCN(C)C3CCN(S(=O)(=O)c4ccc(C)cc4)CC3)c(-c3cc(OC)c(OC)c(OC)c3)oc2c1 [Compound I11]	47.25 ± 5.84	54.94 ± 8.29	46.83 ± 6.39	93.56 ± 0.55	71.76 ± 4.56	87.57 ± 2.76
COc1cc(OC)c2c(=O)c(OCCCCN(C)C3CCN(S(=O)(=O)c4ccc5ccccc5c4)CC3)c(-c3cc(OC)c(OC)c(OC)c3)oc2c1 [Compound I12]	29.56 ± 7.62	35.81 ± 2.40	45.75 ± 3.32	36.46 ± 7.42	89.81 ± 1.34	95.44 ± 4.92
COc1cc(OC)c2c(=O)c(OCCCCN(C)C3CCN(S(=O)(=O)c4ccc(F)cc4)CC3)c(-c3cc(OC)c(OC)c(OC)c3)oc2c1 [Compound I13]	47.25 ± 4.42	48.08 ± 1.17	43.16 ± 3.98	49.25 ± 4.14	99.72 ± 1.10	100.00 ± 0.67
COc1cc(OC)c2c(=O)c(OCCCCN(C)C3CCN(S(=O)(=O)c4cccs4)CC3)c(-c3cc(OC)c(OC)c(OC)c3)oc2c1 [Compound I14]	66.18 ± 0.61	73.80 ± 3.68	20.44 ± 5.03	8.17 ± 3.75	92.19 ± 0.98	95.49 ± 0.98
COc1ccc(S(=O)(=O)N2CCC(N(C)CCCCOc3c(-c4cc(OC)c(OC)c(OC)c4)oc4cc(OC)cc(OC)c4c3=O)CC2)cc1 [Compound I15]	62.21 ± 1.33	67.94 ± 1.42	3.13 ± 5.57	24.02 ± 2.41	94.39 ± 0.62	96.11 ± 0.71
COc1cc(OC)c2c(=O)c(OCCCCN(C)C3CCN(S(=O)(=O)c4ccc([N+](=O)[O-])cc4)CC3)c(-c3cc(OC)c(OC)c(OC)c3)oc2c1 [Compound I16]	66.33 ± 3.56	74.41 ± 1.31	27.52 ± 7.50	26.66 ± 4.37	55.67 ± 6.24	70.41 ± 2.62
COc1cc(OC)c2c(=O)c(OCCCCN(C)C3CCN(S(=O)(=O)c4ccccc4)CC3)c(-c3cc(OC)c(OC)c(OC)c3)oc2c1 [Compound I17]	99.00 ± 0.40	99.52 ± 0.87	45.66 ± 3.26	38.06 ± 1.91	89.16 ± 1.26	98.29 ± 2.42
COc1cc(OC)c2c(=O)c(OCCCCN(C)C3CCN(S(=O)(=O)c4ccccn4)CC3)c(-c3cc(OC)c(OC)c(OC)c3)oc2c1 [Compound I18]	88.69 ± 0.71	93.05 ± 0.55	46.22 ± 3.27	30.11 ± 1.65	70.98 ± 3.04	78.12 ± 4.25
COc1cc(OC)c2c(=O)c(OCCCCN(C)C3CCN(S(=O)(=O)c4ccc5cccnc5c4)CC3)c(-c3cc(OC)c(OC)c(OC)c3)oc2c1 [Compound I19]	85.44 ± 1.04	89.05 ± 0.47	37.71 ± 3.71	35.21 ± 6.56	38.72 ± 1.36	51.83 ± 2.05
COc1cc(OC)c2c(=O)c(OCCCCN(C)C3CCN(S(=O)(=O)c4ccccc4[N+](=O)[O-])CC3)c(-c3cc(OC)c(OC)c(OC)c3)oc2c1 [Compound I20]	96.57 ± 0.31	97.30 ± 1.97	21.26 ± 8.58	4.11 ± 3.12	90.29 ± 4.84	94.47 ± 8.30
Nc1nnc([S-])s1.Nc1nnc([S-])s1.[Cu+2] [Thiabenone, thiodiazole copper, reference compound]	44.97	70.68	20.86 ± 4.42	40.20	58.92	70.12
bismerthiazol [Leaf Blight Azole, reference compound]	50.60	66.63	57.63	65.69	39.14	60.50
